How the values were obtained:
WNV RNA = assay: Northern blot of WNV RNA in compound treated replicon cells; format: cell-based, West Nile virus; settings: for WNV RNA replication / RNA level (northern blot): 10 μM, 48 hours; for WNV RNA reduction: 48-hour treatment, compounds 10 μM
Description: FIG. 6 is a picture of a Northern blot gel of compound treated WNV replicon cells. 4×10^4 cells were seeded in 24 well plates. After 24 hours, the cells were treated with DMSO (lanes 2, 3) or the non-specific inhibitors, MPA (lane 1) or the compounds […] (lane 4), 18-B3 (lane 5) or 52-F2 (lane 6). After 48 hours, total RNA were isolated, separated on denaturing agrose gels and transferred to nylon membrane. Total RNA from a non-replicon cell (Huh-7 cell) was loaded in lane 7 as negative control. The membrane was probed with [^32P]-dCTP-labeled WNV NS5 and human beta-actin. The signal was quantified using a BioRad phosphoimager and WNV RNA level was calculated using beta-actin as a reference.
To confirm that the compounds can indeed inhibit WNV RNA replication, the WNV RNA level in the replicon cells treated with compounds by Northern blot analysis. Several hit compounds, 18-B3, 275-F9, 275-D9, 52-F2 and MPA were selected to treat the BHK 26.5 cells at 10 μM. […] The “hit” compounds 18-B3 and 275-F9 reduced WNV RNA by 1.5 and 2 fold, respectively (FIG. 6, lanes 4, 5). 18-B3 is one of the nine compounds that have similar structures while 275-F9 is one from another class of four compounds (Table 3).
Total cellular RNA was extracted by using the RNEASY kit (Qiagen NV, Netherlands). Northern blot analysis was done according to the protocol of Gu et al. 2002 (8). Briefly, 5 μg total RNA was electrophoresed through a 1.0% agarose gel containing 2.2M formaldehyde, transferred to a nylon membrane and immobilized by UV cross-linking (Stratagene, La Jolla, Calif.). After pre-hybridization in 5 ml of QuickHyb (Amersham, Piscataway, N.J. GE Healthcare, Giles, UK), [2P] dCTP-labeled probe made by random primer labeling of a 2.7 kb NS5 DNA fragment and a human beta-actin DNA at 65° C. The membrane was washed twice in 2×SSC/0.1% SDS for 10 min at room temperature and twice in 0.1×SSC/0.1% SDS for 15 min at 68° C. Membranes were exposed to Molecular Imager FX phosphoimager (BioRad, Hercules, Calif.) and the radiographic signals were collected and quantitated.

WNV replicon = WNV replicon luciferase assay in BHK 26.5 cells (HTS, re-test, IC50); format: cell-based, West Nile virus; settings: for IC50: West Nile virus, 24 h; for Fold decrease (HTS) / Fold decrease (Re-test): luciferase activity; for Fold decrease (HTS): 10 μM compound, 24 hours, BHK 26.5 cells; for Fold decrease (Re-test): re-checked at a single 10 μM concentration
Description: Ten micromolar concentrations of a selected compound were incubated with BHK 26.5 cells expressing luciferase whose activity is dependent upon WNV replicon replication (FIG. 1A). Primary “hits” were defined by the ability to reduce the amount of luciferase enzyme activity by more than 50%, compared to controls.
To quantify and rank the activity of the 23 remaining compound “hits”, a serial dilution of each compound was incubated with WNV replicon cells to determine the concentration that inhibits 50% of the luciferase readout (IC50s). […] A number of compounds had significant effect only at the highest, 10 μM concentration. However, several compounds had IC50s between 2 and 5 (Table 3), which is very reasonable for primary HTS hits from a compound library. Only a few compounds could cause 90% inhibition in the replicon cells at the concentrations tested.
(§1) Replicon-harboring cells were plated 96-well plates at 10,000 cells per well in MEM plus 3% FBS. 24 hours after plating, compounds were added to the wells by a Robotic liquid handler (Biomek NX) to a final concentration of 10 μM and 1% DMSO. For each 96 well plate, A1 to A8 were left open, H1 to H4 contained 1% DMSO, H5-H8 contained Mycophenolic acid (Sigma-Aldrich, St. Louis, Mo.), which was included as positive controls. After 24 hours of treatment, the media were removed and the luciferase activity expressed in the replicon cells was quantified. When cyto-toxicity was measured, duplicate 96 well plates were plated with BHK 26.5 replicon cells. One plate was used for luciferase assay and one plate was used for measuring toxicity using MTT assay.
Luciferase assay was performed by using the STEADY GLO reagent (Promega Corp. Madison, Wis.) according to the manufacturer's recommendation with slight modifications. Briefly, the culture media from the 96 wells were removed by dumping on paper towels.
100 μl of a 1:1 mixture of luciferase regent and culture media were added to the plate. After 5-minute incubation, the luminescence was read on a TOPCOUNT (PerkinElmer, Wellesley, Mass.).

BHK 26.5 replicon cells = assay: MTT toxicity assay on BHK 26.5 replicon cells; format: cell-based; settings: MTT assay
Description: The HTS strategy follows the flowchart outlined in FIG. 2. 35,000 compounds were screened from a chemical library described below, using a cutoff of 50% reduction in luminescence readout as the criteria for further study. Upon completion of the screen, approximately 1100 compounds were selected, making the hit rate of 3%. This is considerably higher than expected, implying many false positive and/or cytotoxic compounds. Nevertheless, the compounds were picked out from the “daughter” plates and re-checked at a single 10 μM concentration. In addition, a duplicate 96 well plates were also plated and the toxicity of the compounds was determined in an MTT assay. Upon completion of these assays, most compounds were disqualified as either false positives or being toxicity to cells. As a result, only a small number of compounds were further analyzed directly from the “mother” plate stock. After IC50 determination and secondary assay to rule out luciferase inhibitors, 23 “hits” were identified.
as §1
(§2) Compound toxicity was determined by MTT assay. For the MTT assay, the cell medium was removed and the monolayers were incubated with 100 μl/well of 0.5 mg/ml MTT for 6 h at 37° C. The MTT solution was then aspirated and 100 μl/well of the 10% SDS (in 0.01N HCl) was added, followed by spectrophotometric quantitation (570 nm) of the insoluble MIT reaction product.

WNV NS3 protein = assay: Western blot of WNV protein in compound treated replicon cells; format: cell-based, West Nile virus; settings: 48-hour treatment, up to 10 uM; MPA 2.5 ug/ml
Description: Mycophenolic acid (MPA) was used as positive control in the experiment. 4×10^4 cells were seeded in 24 well plates 24 hours before the various concentrations of compounds were added. After 48 hours of drug treatment, SDS-Sample buffer were added to the wells to lyse the cells. The protein samples were separated on SDS-PAGE and transferred to PVDF membrane. Viral protein was detected by probing with a monoclonal antibody against WNV. The same membrane was stripped and probed for beta-actin with the signals shown at the bottom of the blot.
Although it is reassuring that multiple tests have yielded similar positive results, the ability of the compounds to inhibit WNV replication was further assessed in secondary assays. In the western blot analysis shown in FIG. 5, total cell proteins were prepared from WNV replicon cells treated with the hit compounds and the viral protein NS3 was detected with a monoclonal […] against West Nile virus (15). The same blots were stripped and probed for beta-actin to show equal loading. […] When compared with the IC50 determined for these compounds in the luciferase assay, there was a good correlation between the luciferase reduction and the viral protein reduction.
Total cell lysates from replicon cells were harvested from replicon cells in 1×SDS sample buffer. The lysates were heated at 70° C. for 10 min in the presence of DTT before electrophoresis on a 10% Tris-glycine SDS polyacrylamide gel (Invitrogen) in 1× Tris-glycine buffer. The protein was transferred to PVDF (Invitrogen) membrane. Following the transfer, the membrane was rinsed once with TBS containing 0.5% Tween-20 (TBS-Tween) and blocked in TBS-Tween containing 5% non-fat milk for 1 h. After washing with PBS-Tween, the membrane was incubated with the primary WNV antibody (15) at 1:3000 dilutions for 1 h at 25° C. Prior to incubation with HRP conjugated-mouset IgG secondary antibody (Amersham, Life Science, Piscataway, N.J.) diluted 1:5000, the blot was washed in PBS-Tween. Following the secondary antibody incubation, the blot was washed again and treated with Super Signal Chemiluminescent Reagent (Pierce) according to the manufacturer's protocol and exposed to X-ray film. For controls, the blots were stripped and re-probed with an antibody to beta-actin (Chemicon), which was detected with a goat anti-mouse horseradish peroxidase conjugate.

WNV = WNV yield reduction assay (live virus) on BHK cells; format: cell-based, West Nile virus
Description: The antiviral assay for the 309-F6 compounds was conducted on BHK cells. The virus produced in the presence of 1% DMSO or various concentrations of compounds was tittered on Vero cells. The amount of virus relative to the 1% DMSO control was plotted on the y-axis; the concentration of the compound 309F6 is shown in μM on the x-axis. Data from two independently treated wells (Test 1 and Test 2) are shown.
To measure activity against live WNV, BHK cells were plated in 96-well plates at a concentration of 12,000 cells/well. One day later the cells were infected with WNV for 1 h at an MOI of 0.05. The cells were then washed once and re-fed with fresh DMEM containing dilutions of the test compound. Plates were then incubated at 37° C. for 48 h, the supernatant collected and the WNV produced titered. For virus titration, Vero cells were plated in 96-well plates at 8000 cells/well and incubated overnight. The Vero cell monolayer were then infected for 1 h with various dilutions of the WNV supernatant, overlaid with media containing 0.6% tragacanth (ICN, CA) and incubated at 37° C. for 48 h. The culture media was then aspirated; the plate was rinsed, air-dried, and fixed with 50 μl/well acetone/methanol (50:50). Viral foci were detected for enumeration by immunostaining as described previously (15).

BHK cells = assay: toxicity (MTT, CC50) in BHK cells parallel to WNV infection assay; format: cell-based; settings: 20 μM, parallel toxicity assessment
Description: Several of these original compounds selected from the WNV replicon based screen were evaluated in an antiviral assay against WNV live virus. […] Modifications of this compound would be further investigated
The toxicity of 101-G7 was also measured by MTT assay and CC50 was calculated. 40 μM is highest concentration used.
as §2

COc1ccc(-n2nc3c(c2NC(=O)c2cccs2)CSC3)cc1 [Compound 18-B3, Thiophene-2-carboxylic acid [2-(4-methoxy-phenyl)-2,6-dihydro-4H-thieno[3,4-c]pyrazol-3-yl]-amide]
WNV RNA replication / RNA level (northern blot) (WNV RNA): clearly inhibited the WNV RNA replication
WNV RNA reduction (WNV RNA): 1.5 fold
IC50 (WNV replicon): 5 µM
Fold decrease (HTS) (WNV replicon): 3 Fold
Fold decrease (Re-test) (WNV replicon): 2 Fold
Toxicity (uM)* (BHK 26.5 replicon cells): >30 µM

COc1ccc(-n2nc3c(c2NC(=O)c2ccc(S(=O)(=O)N4CCCCC4)cc2)CSC3)cc1 [Compound 18-D2, N-[2-(4-Methoxy-phenyl)-2,6-dihydro-4H-thieno[3,4-c]pyrazol-3-yl]-4-(piperidine-1-sulfonyl)-benzamide]
IC50 (WNV replicon): 7.5 µM
Fold decrease (HTS) (WNV replicon): 3 Fold
Fold decrease (Re-test) (WNV replicon): 2.8 Fold
WNV NS3 protein level (western blot) (WNV NS3 protein): dose dependency is also clearly seen
Toxicity (uM)* (BHK 26.5 replicon cells): >30 µM

Cc1nc2c(C(=O)NCCC3=CCCCC3)cnn2c(O)c1Cc1ccccc1Cl [Compound 275-F9, 6-(2-Chloro-benzyl)-7-hydroxy-5-methyl-pyrazolo[1,5-a]pyrimidine-3-carboxylic acid (2-cyclohex-1-enyl-ethyl)-amide]
WNV RNA replication / RNA level (northern blot) (WNV RNA): clearly capable of reducing the WNV RNA level
WNV RNA reduction (WNV RNA): 2 fold
IC50 (WNV replicon): 7.5 µM
Fold decrease (HTS) (WNV replicon): 27 Fold
Fold decrease (Re-test) (WNV replicon): 4.5 Fold
Toxicity (uM)* (BHK 26.5 replicon cells): >10 µM

CCN(CCNC(=O)c1cnn2c(O)c(Cc3ccccc3F)c(C)nc12)c1ccccc1 [Compound 309-F6, 6-(2-Fluoro-benzyl)-7-hydroxy-5-methyl-pyrazolo[1,5-a]pyrimidine-3-carboxylic acid [2-(ethyl-phenyl-amino)-ethyl]-amide]
IC50 (WNV replicon): 10 µM
Fold decrease (HTS) (WNV replicon): 7 Fold
Fold decrease (Re-test) (WNV replicon): 6 Fold
WNV NS3 protein level (western blot) (WNV NS3 protein): reduced viral protein only at the 10 uM
WNV titer reduced (WNV; 20 μM, BHK cells, titered on Vero cells): approximately 90%
selective index (WNV; estimated): more than 8
activity in the WNV infection assay (WNV; live WNV): inhibited WNV production
cell toxicity (BHK cells): only slight cell toxicity
Toxicity (uM)* (BHK 26.5 replicon cells): >10 µM

Cc1ccc(CCNC(=O)c2cnn3c(O)c(Cc4ccccc4F)c(C)nc23)cc1 [Compound 310-B3, 6-(2-Fluoro-benzyl)-7-hydroxy-5-methyl-pyrazolo[1,5-a]pyrimidine-3-carboxylic acid (2-p-tolyl-ethyl)-amide]
IC50 (WNV replicon): 10 µM
Fold decrease (HTS) (WNV replicon): 17 Fold
Fold decrease (Re-test) (WNV replicon): 4 Fold
WNV NS3 protein level (western blot) (WNV NS3 protein): reduced viral protein only at the 10 uM
Toxicity (uM)* (BHK 26.5 replicon cells): >10 µM

COc1ccc(CC(=O)Nc2ccc(C(=N)NO)cc2)cc1 [Compound 331-D11, N-[4-(N-Hydroxycarbamimidoyl)-phenyl]-2-(4-methoxy-phenyl)-acetamide]
IC50 (WNV replicon): 5 µM
Fold decrease (HTS) (WNV replicon): 4 Fold
Fold decrease (Re-test) (WNV replicon): 2 Fold
WNV NS3 protein level (western blot) (WNV NS3 protein): dose dependency is also clearly seen
Toxicity (uM)* (BHK 26.5 replicon cells): >30 µM
